Results from patent US11866416B2, “Streptococcus mutans glucosyl transferase inhibitors for dental caries therapy” (UAB Research Foundation, priority 2018, dated 2024).
In brackets after ≈: the same amount, converted by molar mass. Read-outs that look alike come from different tables or passages of the source.

What was measured:
S. mutans = test: microbe, parasite or virus in culture; assay type: cell-based, Streptococcus mutans; details: for Growth MIC50: Table 8, stilbenes
Outline: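 Mid-exponential cultures (OD470 0.6) in THB were exposed to compound concentrations for 16 h, with growth read at OD470 and normalised to 1% DMSO control (100%). CFU/mL were also counted after 24 h at 37 °C and compared with the DMSO control.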

GtfB catalytic domain = GtfB catalytic domain (Streptococcus mutans serotype c (strain ATCC 700610 / UA159), UniProt P08987); test: OctetRed96 binding kinetics, GtfB; details: 1:1 binding model
GtfB catalytic domain, sequence (P08987 268-1074 limits assumed): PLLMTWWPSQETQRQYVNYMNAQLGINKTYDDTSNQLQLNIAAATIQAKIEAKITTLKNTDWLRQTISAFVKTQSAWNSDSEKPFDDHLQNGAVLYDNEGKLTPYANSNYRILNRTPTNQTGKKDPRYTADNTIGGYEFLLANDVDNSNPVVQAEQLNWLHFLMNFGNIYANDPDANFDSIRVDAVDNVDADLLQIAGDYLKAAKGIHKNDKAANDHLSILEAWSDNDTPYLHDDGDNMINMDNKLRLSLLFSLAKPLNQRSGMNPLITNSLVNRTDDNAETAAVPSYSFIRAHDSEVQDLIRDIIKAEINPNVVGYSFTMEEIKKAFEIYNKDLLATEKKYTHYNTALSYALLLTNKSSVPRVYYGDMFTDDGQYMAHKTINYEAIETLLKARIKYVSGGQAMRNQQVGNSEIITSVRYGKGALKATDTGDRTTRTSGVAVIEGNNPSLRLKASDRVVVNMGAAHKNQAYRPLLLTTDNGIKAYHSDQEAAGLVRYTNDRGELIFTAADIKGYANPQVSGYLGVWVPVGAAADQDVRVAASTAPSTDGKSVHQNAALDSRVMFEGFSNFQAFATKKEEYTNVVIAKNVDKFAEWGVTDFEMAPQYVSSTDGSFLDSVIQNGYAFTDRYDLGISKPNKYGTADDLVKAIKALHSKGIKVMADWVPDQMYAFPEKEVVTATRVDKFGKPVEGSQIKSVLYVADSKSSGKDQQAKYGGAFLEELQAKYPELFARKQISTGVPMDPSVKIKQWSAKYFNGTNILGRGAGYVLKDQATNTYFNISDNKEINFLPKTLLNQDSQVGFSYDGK
Text: To determine if the inhibition is attributed by the binding of the lead compound to the enzymes, the OctetRed96 system was used to characterize protein-small molecule binding kinetics. The his-tagged catalytic domains of GtfB and GtC were immobilized separately onto an anti-penta-HIS (HIS1K) biosensor which consists of high affinity, high specificity penta-his antibody pre-immobilized on a fiber optic biosensor. This sensor was then exposed to varying concentrations of #G43.
Expression and purification of GtfB and GtfC catalytic domains. The DNA fragment coding for either GtfB catalytic (residues 268 aa-1074 aa) or GtfC-catalytic (residues 295 aa-1103 aa) was PCR amplified with primer sets of GtfB-BamH1-F and GtfB-Xho1-R, GtfC-BamH1-F and GtfC-Xhol1-R respectively using S. mutans genomic DNA as a template. Each amplified fragment was cloned into pET-sumo vector respectively and transformed in Escherichia coli BL21(DE3). The recombinant strain grown to OD600=0.8 in LB medium was induced with 0.1 mM IPTG at 18° C. overnight. Cell lysates prepared form the overnight grown E. coli cells were subjected to protein purification using HiTrap™ Column (Ni^2+ affinity) followed by gel filtration experiments as described (Zhu, F. et al. Structural and functional analysis of a new subfamily of glycosyltransferases required for glycosylation of serine-rich streptococcal adhesins. The Journal of biological chemistry 286, 27048-27057, doi:10.1074/jbc.M110.208629 (2011); Zhang, H. et al. The highly conserved domain of unknown function 1792 has a distinct glycosyltransferase fold. Nature communications 5, 4339, doi:10.1038/ncomms5339 (2014)).
Octet Red analysis. Octet full kinetic binding analysis was performed for binding of #G43 to GtfB and GtfC. The rate constant, KD, was determined using the Octet® Red96 system (ForteBio, Menlo Park, Calif.). Phosphate buffer with 3.5% (w/v) DMSO was used. The proteins were captured on dip-and-read Anti-Penta-HIS (HIS1K) Biosensor. These consist of high affinity, high specificity Penta-His antibody from Qiagen pre-immobilized on a fiber optic biosensor. The binding of #G43 at 3-fold serial dilutions in phosphate buffer from 200, 66.6, 22.2, 7.4, 2.5 to 0 μM was assessed. The ForteBio Octet analysis software (ForteBio, Menlo Park, Calif.) was used to generate the sensorgram and the accuracy of the analysis.
OctetRed analysis. […] GtfC and GtfB were purified. The Octet® Red96 system (ForteBio, Menlo Park, Calif.) was used to determine the rate constant, KD. […] Sensorgrams and the accuracy of the analysis was calculated using the ForteBio OctetRed analysis software (ForteBio, Menlo Park, Calif.).

S. mutans UA159 = test: Rat model of dental caries; details: for bacterial colonization versus control group / body weight over the course of the study / buccal, sulcal, and proximal surface caries scores: 100 μM topically twice daily for 4 weeks; for oral tissue (mucosal and gingival tissues) at sacrifice, treated versus non-treated: 100 μM twice daily for 4 weeks
Description: Rat model of dental caries. S. mutans in vivo colonization and virulence were evaluated using a rat model of dental caries as previously described (Crowley, P. J., Brady, L. J., Michalek, S. M. & Bleiweis, A. S. Virulence of a spaP Mutant of Streptococcus mutans in a Gnotobiotic Rat Model. Infection and Immunity 67, 1201-1206 (1999)). […] Rats were then infected with S. mutans UA159 for three consecutive days and provided a caries-promoting Teklad Diet 305 containing 5% sucrose (Harlan Laboratories, Inc., Indianapolis, IN.) and sterile drinking water ad libitum. One group of rats was then treated with vehicle control while another group was topically treated with the lead compound at 100 μM twice daily for 4 weeks beginning 10 days post infection. Following each treatment, drinking water was withheld for 60 min. Animals were weighed at weaning and at the termination of the experiment. The animals were euthanized, their mandibles excised for microbiological analysis of plaque samples on MS agar plates and BAP and for scoring of caries by the method of Keyes (Keyes, P. H. Dental caries in the molar teeth of rats. II. A method for diagnosing and scoring several types of lesions simultaneously. Journal of dental research 37, 1088-1099 (1958)). All experimental protocols were approved by University of Alabama at Birmingham Institutional Animal Care and Use Committee. The methods were carried out in accordance with the relevant guidelines and regulations.
Dental caries rat model. […] At the age of 20 days, rat pups were removed from isolators and randomly assigned into five groups. […] Rats were then infected with S. mutans UA159 for three consecutive days and provided a caries-promoting Diet 305, which contains 5% sucrose (TD.80406, diet with 62% corn starch, Harlan Laboratories, Madison, Wis.) and sterile drinking water ad libitum. The rats were then treated with the stilbene, water, or not treated respective of their study group as described above at 100 μM twice daily for 4 weeks beginning 10 days post infection. Drinking water was withheld for one hour after each treatment. Rats were weighed at weaning and after 45 days at the termination of the experiment. The animals were euthanized, their mandibles excised for microbiological analysis of plaque samples on MS agar plates and BAP and for scoring of caries by the method of Keyes. All experimental protocols were approved by the University of Alabama at Birmingham Institutional Animal Care and Use Committee and in accordance with the relevant guidelines and regulations.

[1] = Streptococcus mutans, Table 3, >300 = no inhibition up to 300 μM, NI = no inhibition up to 400 μM, read-out: Growth Inhibition MIC50
[2] = Streptococcus mutans, Table 4, stilbenes, average of at least 5 measurements, NI = no inhibition, read-out: Growth MIC50
[3] = average of at least 5 measurements, NI = no inhibition

| Structure (SMILES) | S. mutans cell viability (CFU) versus control (S. mutans; up to 200 μM) | Kd (GtfB catalytic domain) [µM] | bacterial colonization versus control group (S. mutans UA159) | body weight over the course of the study (S. mutans UA159) | buccal, sulcal, and proximal surface caries scores (S. mutans UA159) | inhibition of S. mutans cell viability (%) at 400 µM (S. mutans; Streptococcus mutans, 400 μM) [%] | MIC50 (S. mutans; [1]) [µM] | MIC50 (S. mutans; [2]) [µM] | inhibition at 52 µM (S. mutans; Streptococcus mutans, at 52 μM, read-out: growth of S. mutans inhibited) [%] | Growth MIC50 (S. mutans; [3]) [µM] | oral tissue (mucosal and gingival tissues) at sacrifice, treated versus non-treated (S. mutans UA159) |
| --- | --- | --- | --- | --- | --- | --- | --- | --- | --- | --- | --- |
| NC(=O)c1ccccc1NC(=O)c1cc2cc([N+](=O)[O-])ccc2s1 [#G43] | No significant difference | 3.7 | did not reach the statistically significant difference | did not lose weight | significantly reduced | – | – | – | – | – | – |
| Oc1cc(O)cc(/C=C/c2ccc(O)c(O)c2)c1 [Piceatannol] | – | 14.6 | not statistically significant | did not lose weight | significant reduction | 37 | 564 ± 38 (≈ 138 µg/mL) | 564 ± 37.8 (≈ 138 µg/mL) | < 10 | 564 ± 37.8 | no obvious differences |
| Oc1ccc(/C=C/c2cc(O)cc(O)c2)cc1 [Resveratrol, reference compound] | – | 144 | not statistically significant | did not lose weight | significant reduction | – | 546 ± 16 (≈ 125 µg/mL) | 546 ± 15.9 (≈ 125 µg/mL) | – | 546.4 ± 15.9 | no obvious differences |
